This assay relates to L1210 leukemia ip in BDF1 mice, survival T/C. Description: NCI In Vivo Anticancer Drug Screen. Data for tumor model L1210 Leukemia (intraperitoneal) in B6D2F1 (BDF1) mice. As to conditions: endpoint: mean survival time, higher = longer survival. Put shortly:
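Antitumor effect is assessed in tumor-bearing animals. Survival in the compound arm is compared with a vehicle-dosed control arm and expressed as their quotient.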

Where [1] appears, read: dose: 100.0 mg/kg/injection, schedule: Q01DX009 (ip), vehicle: saline.
Where [2] appears, read: dose: 200.0 mg/kg/injection, schedule: Q01DX009 (ip), vehicle: saline.
The mark [3] stands for this setting: dose: 200.0 mg/kg/injection, schedule: Q04DX003 (ip), vehicle: saline.
Where [4] appears, read: dose: 400.0 mg/kg/injection, schedule: Q04DX003 (ip), vehicle: saline.

Structures are written as SMILES. “And” between values parts separate entries of the source, which are not always exact repeats. Identical values can stand only once. Inconclusive results and toxic doses are left out. Peptide text beside a SMILES is read from it. * marks the point of attachment. Cbz = O=C(OCc1ccccc1)*; Bn = c1ccc(C*)cc1

On to `O=C(CN1CC1)NCc1ccc(CNC(=O)CN2CC2)cc1`, for which the T/C (dose: 1.5 mg/kg/injection, schedule: Q01DX009 (ip), vehicle: carboxymethylcellulose (CMC)) was 111 % of control; the T/C (dose: 6.0 mg/kg/injection, schedule: Q01DX009 (ip), vehicle: carboxymethylcellulose (CMC)) was 106 % of control; the T/C (dose: 6.25 mg/kg/injection, schedule: Q01DX009 (ip), vehicle: carboxymethylcellulose (CMC)) was 118 % of control; the T/C (dose: 7.3 mg/kg/injection, schedule: Q01DX001 (ip), vehicle: carboxymethylcellulose (CMC)) was 115 % of control; the T/C (dose: 11.0 mg/kg/injection, schedule: Q01DX001 (ip), vehicle: carboxymethylcellulose (CMC)) was 121 % of control; the T/C (dose: 11.1 mg/kg/injection, schedule: Q01DX009 (ip), vehicle: carboxymethylcellulose (CMC)) is 158 % of control. The T/C reads like this: (dose: 12.5 mg/kg/injection, schedule: Q01DX009 (ip), vehicle: carboxymethylcellulose (CMC)) 183 % of control; (dose: 16.6 mg/kg/injection, schedule: Q01DX009 (ip), vehicle: carboxymethylcellulose (CMC)) 163 % of control; (dose: 25.0 mg/kg/injection, schedule: Q01DX009 (ip), vehicle: carboxymethylcellulose (CMC)) 153 % of control and 183 % of control; (dose: 37.5 mg/kg/injection, schedule: Q01DX001 (ip), vehicle: carboxymethylcellulose (CMC)) 155 % of control.

Consider `Cc1ccc([As](=O)(O)O)cc1F`, for which the T/C (dose: 1.56 mg/kg/injection, schedule: Q01DX009 (ip), vehicle: Klucel (hydroxypropylcellulose) (HPC)) is 94 % of control; the T/C (dose: 3.13 mg/kg/injection, schedule: Q01DX009 (ip), vehicle: Klucel (hydroxypropylcellulose) (HPC)) is 94 % of control; the T/C (dose: 6.25 mg/kg/injection, schedule: Q01DX009 (ip), vehicle: Klucel (hydroxypropylcellulose) (HPC)) is 88 % of control.

As to `CCCCCCOP(=O)(N1CC1C)N1CC1C` (stereo unspecified), the T/C runs as follows: (dose: 12.0 mg/kg/injection, schedule: Q01DX Z (ip), vehicle: saline) 102 % of control; (dose: 25.0 mg/kg/injection, schedule: Q01DX Z (ip), vehicle: saline) 103 % of control; (dose: 50.0 mg/kg/injection, schedule: Q01DX Z (ip), vehicle: saline) 102 % of control and 111 % of control; (dose: 100.0 mg/kg/injection, schedule: Q01DX Z (ip), vehicle: saline) 109 % of control; (dose: 200.0 mg/kg/injection, schedule: Q01DX Z (ip), vehicle: saline) 107 % of control; (dose: 400.0 mg/kg/injection, schedule: Q01DX Z (ip), vehicle: saline) 106 % of control.

Regarding `Nc1cc(S(N)(=O)=O)ccc1SSc1ccc(S(N)(=O)=O)cc1N`, the T/C reads like this: under setting [1], 105 % of control; (dose: 100.0 mg/kg/injection, schedule: Q04DX003 (ip), vehicle: saline) 96 % of control; under setting [2], 99 % of control; under setting [3], 94 % of control; (dose: 400.0 mg/kg/injection, schedule: Q01DX009 (ip), vehicle: saline) 110 % of control; under setting [4], 89 % of control.

For the compound `COC(=O)C(Cc1ccc(O)cc1)NC(=O)C(CSCc1ccccc1)NC(=O)OCc1ccccc1` (stereo unspecified) (Cbz-Cys(Bn)-Tyr-OMe; configuration not given here), the T/C is 94 % of control (dose: 100.0 mg/kg/injection, schedule: Q04DX003 (ip), vehicle: DMSO); 98 % of control (dose: 200.0 mg/kg/injection, schedule: Q04DX003 (ip), vehicle: DMSO); 91 % of control (dose: 400.0 mg/kg/injection, schedule: Q04DX003 (ip), vehicle: DMSO).

Regarding `CC1NC(=O)COC1c1ccccc1` (stereo unspecified), the T/C runs as follows: (dose: 25.0 mg/kg/injection, schedule: Q01DX009 (ip), vehicle: Klucel (hydroxypropylcellulose) (HPC)) 101 % of control; (dose: 50.0 mg/kg/injection, schedule: Q01DX009 (ip), vehicle: Klucel (hydroxypropylcellulose) (HPC)) 95 % of control; (dose: 100.0 mg/kg/injection, schedule: Q01DX009 (ip), vehicle: Klucel (hydroxypropylcellulose) (HPC)) 101 % of control; (dose: 200.0 mg/kg/injection, schedule: Q01DX009 (ip), vehicle: Klucel (hydroxypropylcellulose) (HPC)) 96 % of control.

Consider `CC12CC(O)C3c4ccc(O)cc4CCC3C1CCC2=O` (stereo unspecified), for which the T/C is 106 % of control (dose: 50.0 mg/kg/injection, schedule: Q01DX001 (ip), vehicle: carboxymethylcellulose (CMC)); 98 % of control (dose: 100.0 mg/kg/injection, schedule: Q01DX001 (ip), vehicle: carboxymethylcellulose (CMC)); 104 % of control (dose: 200.0 mg/kg/injection, schedule: Q01DX001 (ip), vehicle: carboxymethylcellulose (CMC)); 104 % of control (dose: 400.0 mg/kg/injection, schedule: Q01DX001 (ip), vehicle: carboxymethylcellulose (CMC)).

Regarding `CCCCCCCCCCCC(=O)O.[Cr]`, the T/C by setting is: (dose: 100.0 mg/kg/injection, schedule: Q01DX009 (ip), vehicle: other) 93 % of control; (dose: 100.0 mg/kg/injection, schedule: Q04DX003 (ip), vehicle: other) 97 % of control; (dose: 200.0 mg/kg/injection, schedule: Q01DX009 (ip), vehicle: other) 95 % of control; (dose: 200.0 mg/kg/injection, schedule: Q04DX003 (ip), vehicle: other) 102 % of control; (dose: 400.0 mg/kg/injection, schedule: Q01DX009 (ip), vehicle: other) 92 % of control; (dose: 400.0 mg/kg/injection, schedule: Q04DX003 (ip), vehicle: other) 91 % of control.

As to `C[n+]1ccc(C(=O)O)c2ccccc21`, the T/C runs as follows: (dose: 75.0 mg/kg/injection, schedule: Q01DX001 (ip), vehicle: saline) 94 % of control; (dose: 75.0 mg/kg/injection, schedule: Q04DX003 (ip), vehicle: acetone) 92 % of control; (dose: 150.0 mg/kg/injection, schedule: Q01DX001 (ip), vehicle: saline) 95 % of control; (dose: 150.0 mg/kg/injection, schedule: Q04DX003 (ip), vehicle: acetone) 89 % of control; (dose: 300.0 mg/kg/injection, schedule: Q01DX001 (ip), vehicle: saline) 90 % of control.

With `CC(C)=C1N=C(c2ccccc2)OC1=O`, the T/C (dose: 100.0 mg/kg/injection, schedule: Q04DX002 (ip), vehicle: Klucel (hydroxypropylcellulose) (HPC)) is 97 % of control; the T/C (dose: 200.0 mg/kg/injection, schedule: Q04DX002 (ip), vehicle: Klucel (hydroxypropylcellulose) (HPC)) was 111 % of control; the T/C (dose: 400.0 mg/kg/injection, schedule: Q04DX002 (ip), vehicle: Klucel (hydroxypropylcellulose) (HPC)) was 111 % of control.

Take `CCC1(C)OC(C)C(C)O1` (stereo unspecified): the T/C reads like this: (dose: 50.0 mg/kg/injection, schedule: Q01DX009 (ip), vehicle: saline) 100 % of control; under setting [1], 107 % of control; under setting [2], 104 % of control.

For `C=CC[Se]c1nc(N)nc2c1ncn2C1OC(CO)C(O)C1O` (stereo unspecified), the T/C runs as follows: (dose: 12.5 mg/kg/injection, schedule: Q01DX005 (ip), vehicle: saline) 104 % of control; (dose: 25.0 mg/kg/injection, schedule: Q01DX005 (ip), vehicle: saline) 100 % of control.

For `COc1ccc(NC(=O)Nc2ccccc2Cl)c(Cl)c1`, the T/C reads like this: (dose: 100.0 mg/kg/injection, schedule: Q04DX002 (ip), vehicle: saline with Tween-80) 90 % of control; (dose: 200.0 mg/kg/injection, schedule: Q04DX002 (ip), vehicle: saline with Tween-80) 87 % of control; (dose: 400.0 mg/kg/injection, schedule: Q04DX002 (ip), vehicle: saline with Tween-80) 87 % of control.

On to `CCN(CCNc1ccc(C)c2sc3ccccc3c(=O)c12)CC(C)(C)O`, for which the T/C is, setting by setting: (dose: 25.0 mg/kg/injection, schedule: Q01DX009 (ip), vehicle: saline sonified) 97 % of control; (dose: 32.0 mg/kg/injection, schedule: Q02DX Z (ip), vehicle: distilled water + alcohol) 119 % of control; (dose: 50.0 mg/kg/injection, schedule: Q01DX001 (ip), vehicle: saline) 106 % of control; (dose: 50.0 mg/kg/injection, schedule: Q01DX009 (ip), vehicle: saline sonified) 95 % of control; (dose: 60.0 mg/kg/injection, schedule: Q01DX009 (ip), vehicle: saline) 120 % of control; (dose: 100.0 mg/kg/injection, schedule: Q01DX001 (ip), vehicle: saline) 112 % of control. For the same compound, the T/C reads like this: (dose: 100.0 mg/kg/injection, schedule: Q01DX009 (ip), vehicle: saline sonified) 118 % of control; (dose: 200.0 mg/kg/injection, schedule: Q01DX001 (ip), vehicle: saline) 109 % of control; under setting [3], 104 % of control; (dose: 300.0 mg/kg/injection, schedule: Q01DX009 (ip), vehicle: saline) 95 % of control; (dose: 400.0 mg/kg/injection, schedule: Q01DX001 (ip), vehicle: saline) 124 % of control; under setting [4], 108 % of control. Moreover, the T/C (dose: 600.0 mg/kg/injection, schedule: Q04DX003 (ip), vehicle: saline) is 189 % of control.

(Values after PubChem BioAssay AID248 (DTP/NCI, 2004).)
